Read-outs that look alike come from different tables or passages of the source.
Key:
[1] = pH measurements of test compound solutions; type: physicochemical
Procedure: Equimolar amounts of test compounds were used instead of weight % amounts to ensure a fair (molar-basis) comparison between test compounds. […] The pH of all test solutions was measured @ 22° C. using a Corning pH meter model 430 with a flat surface combo w/RJ electrode. The pH meter was calibrated using standard pH 7 & 12 buffers.

[2] = target: human M3 receptor (Homo sapiens (Human), UniProt P20309); experiment: Muscarinic 3 receptor binding assay (3H-scopolamine displacement)
human M3 receptor, sequence (P20309 whole entry): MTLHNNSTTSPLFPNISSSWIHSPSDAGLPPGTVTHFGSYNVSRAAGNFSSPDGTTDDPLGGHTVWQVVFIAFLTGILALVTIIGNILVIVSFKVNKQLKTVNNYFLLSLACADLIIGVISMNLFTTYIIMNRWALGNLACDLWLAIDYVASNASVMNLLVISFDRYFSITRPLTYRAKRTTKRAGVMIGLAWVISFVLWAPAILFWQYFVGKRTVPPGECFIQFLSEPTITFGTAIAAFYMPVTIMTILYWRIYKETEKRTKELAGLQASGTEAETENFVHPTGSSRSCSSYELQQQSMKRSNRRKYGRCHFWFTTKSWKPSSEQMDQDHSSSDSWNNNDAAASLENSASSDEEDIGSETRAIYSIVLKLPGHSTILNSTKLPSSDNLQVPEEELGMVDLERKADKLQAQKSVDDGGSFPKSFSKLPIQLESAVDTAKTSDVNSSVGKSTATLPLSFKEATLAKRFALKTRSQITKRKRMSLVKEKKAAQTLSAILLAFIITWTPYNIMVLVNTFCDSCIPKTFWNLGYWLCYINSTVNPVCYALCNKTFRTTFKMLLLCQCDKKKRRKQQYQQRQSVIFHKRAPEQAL
Procedure: The muscarinic 3 receptor binding assay was adapted from Perkin Elmer. […] Atropine (Sigma-Aldrich, St. Louis, Mo.) was used as a positive control. […] The reaction mixtures were then added to matrix 96-well GFC filtration microtiter plates that had been previously pretreated with 0.5% polyethylimine (100 μL) for 4 h and filtered. The binding reactions were terminated by filtering through the GFC plates and washing & filtering with ice-cold phosphate saline buffer (5×100 μL). Once the filters were dry, microscint scintillation cocktail (100 μL) was added to each well, allowed to sit for 20 min and the plates analyzed using a TopCount scintillation counter. […] Curve fitting of % inhibition versus concentration using Excell software allowed determination of IC50 values for test compounds.

[3] = system: human living skin equivalents; type: cell-based
[4] = CHO cell membranes expressing human M3 receptor, 3H-scopolamine
[5] = 79 mM (equimolar) in isopropyl alcohol/water, 22° C.

SMILES | IC50 [2, 4] [nM] | IC50 [2] [nM] | also measured
O=C(N1CCCNCC1)C(O)(c1ccccc1)C1CCCC1 (stereo not drawn) [Compound 6j] |  |  | Measured pH of solution [1]: 9.9
CCCCCCN1CCN(C(=O)C(c2ccccc2)C2CCCC2)CC1 (stereo not drawn) [Compound 3d] | 7900 |  | 
O=C(N1CCN(C/C=C/c2ccccc2)CC1)C(O)(c1ccccc1)C1CCCC1 (stereo not drawn) [Compound 7e] |  | 195 | 
CC(Cc1ccc2c(c1)OCO2)CN1CCN(C(=O)C(O)(c2ccccc2)C2CCCC2)CC1 (stereo not drawn) [Compound 7i] |  | 4600 | 
COc1ccc(CCN2CCN(C(=O)C(O)(c3ccccc3)C3CCCC3)CC2)cc1 (stereo not drawn) [Compound 9d] |  | 357 | 
CN1CCCN(C(=O)C(c2ccccc2)C2CCCC2)CC1 (stereo not drawn) [Compound 3f] | 409 |  | 
CN1CCN(C(=O)C(c2ccccc2)C2CCCC2)CC1 (stereo not drawn) [Compound 3b] | 2100 |  | 
CN1CCN(C(=O)C(c2ccccc2)C2CCCCC2)CC1 (stereo not drawn) [Compound 3a] | 5300 |  | 
O=C(C(c1ccccc1)C1CCCC1)N1CCN(CCc2ccccc2)CC1 (stereo not drawn) [Compound 7a] |  | 1800 | 
O=C(N1CCN(CC(O)c2ccccc2)CC1)C(O)(c1ccccc1)C1CCCC1 (stereo not drawn) [Compound 11] |  | 4300 | 
O=C(N1CCN(CCc2ccccc2)CC1)C(O)(c1ccccc1)C1CCCC1 (stereo not drawn) [Compound 7f] |  | 4700 | 
O=C(N1CCN(CCCc2ccccc2)CC1)C(O)(c1ccccc1)C1CCCC1 (stereo not drawn) [Compound 7d] |  | 63 | % Increase in Ki-67 stained positive cells over vehicle [3]: 127%
O=C(N1CCN(CCOc2ccccc2)CC1)C(O)(c1ccccc1)C1CCCC1 (stereo not drawn) [Compound 9c] |  | 1200 | 
O=C(N1CCNCC1)C(O)(c1ccccc1)C1CCCC1 (stereo not drawn) [Compound 6b] |  |  | Measured pH of solution [1]: 10.0
O=C(C(c1ccccc1)C1CCCC1)N1CCN(CCCc2ccccc2)CC1 (stereo not drawn) [Compound 7b] | 2100 |  | 
O=C(CN1CCN(C(=O)C(O)(c2ccccc2)C2CCCC2)CC1)c1ccccc1 (stereo not drawn) [Compound 9h] |  | 2700 | 
CN1CCCNCC1 [Compound 15] |  |  | Measured pH of solution [1, 5]: 11.5
CN1CCNCC1 [Compound 14] |  |  | Measured pH of solution [1, 5]: 11.0
O=C(C(c1ccccc1)C1CCCC1)N1CCN(C/C=C/c2ccccc2)CC1 (stereo not drawn) [Compound 7c] | 599 |  | 
O=C(C(c1ccccc1)C1CCCC1)N1CCN(CCC2CCCCC2)CC1 (stereo not drawn) [Compound 9a] | 6000 |  | 

Source: patent US10155733B2, “N-aralkylcarbonyl-piperazine and -homopiperazine compounds and personal care compositions comprising the same” (Conopco, Inc., priority 2015, dated 2018)
